According to US10597388B2, “Pyridazinone herbicides” (FMC CORPORATION, priority 2014, dated 2020):

What was measured:
Assay in all cases: Test C greenhouse herbicide test, pre- and postemergence
Format in all cases: in vivo
[1] = system: barnyardgrass (Echinochloa crus-galli)
Summary of the method: (§1)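 Percent-control ratings (0 none, 100 complete) came from visual comparison with controls held alongside in the greenhouse for 13–15 d. Treatments covered soil application at sowing and foliar application to young plants 2–18 cm tall.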

[2] = system: blackgrass (Alopecurus myosuroides)
Summary of the method: as §1

corn (Zea mays) = system: corn (Zea mays)
Summary of the method: as §1

[3] = system: crabgrass, large (large crabgrass, Digitaria sanguinalis)
Summary of the method: as §1

[4] = system: foxtail, giant (giant foxtail, Setaria faberii)
Summary of the method: as §1

[5] = system: galium (catchweed bedstraw, Galium aparine)
Summary of the method: as §1

[6] = system: lambsquarters (Chenopodium album)
Summary of the method: as §1

[7] = system: nutsedge, yellow (yellow nutsedge, Cyperus esculentus)
Summary of the method: as §1

[8] = system: oilseed rape (Brassica napus)
Summary of the method: as §1

[9] = system: pigweed (Amaranthus retroflexus)
Summary of the method: as §1

[10] = system: ragweed (common ragweed, Ambrosia elatior)
Summary of the method: as §1

[11] = system: ryegrass, Italian (Italian ryegrass, Lolium multiflorum)
Summary of the method: as §1

soybean (Glycine max) = system: soybean (Glycine max)
Summary of the method: as §1

[12] = system: velvetleaf (Abutilon theophrasti)
Summary of the method: as §1

[13] = system: wheat (winter wheat, Triticum aestivum)
Summary of the method: as §1

[14] = Postemergence, 31 g ai/ha, 0 to 100 scale (0 no effect, 100 complete control)
[15] = Postemergence, 125 g ai/ha, scale 0 to 100, 0 is no effect, 100 is complete control
[16] = Postemergence, 250 g ai/ha, scale 0 to 100, 0 no effect, 100 complete control, 13 to 15 d
[17] = Preemergence, 31 g ai/ha, scale 0 to 100, 0 is no effect, 100 is complete control
[18] = Preemergence, 62 g ai/ha, scale 0 to 100, 0 is no effect, 100 is complete control
[19] = Preemergence, 125 g ai/ha, scale 0 to 100, 0 is no effect, 100 is complete control
[20] = Preemergence, 250 g ai/ha, scale 0 to 100, 0 no effect, 100 complete control
[21] = postemergence, 62 g ai/ha, scale 0 to 100, 0 no effect, 100 complete control

COC(=O)Oc1c(C)nn(C)c(=O)c1-c1c(C)sc2ccc(C)cc12 [Compound 80]
Barnyardgrass plant response rating [1, 14]: 25
Plant response rating, Barnyardgrass [1, 15]: 35
Plant response rating, Barnyardgrass [1, 16]: 35
Plant response rating, Barnyardgrass [1, 17]: 10
Plant response rating, Barnyardgrass [1, 18]: 65
Plant response rating, Barnyardgrass [1, 19]: 75
Barnyardgrass plant response rating [1, 20]: 85
Barnyardgrass plant response rating [1, 21]: 30
Blackgrass plant response rating [2, 14]: 15
Plant response rating, Blackgrass [2, 15]: 40
Plant response rating, Blackgrass [2, 16]: 50
Plant response rating, Blackgrass [2, 17]: 70
Plant response rating, Blackgrass [2, 18]: 80
Plant response rating, Blackgrass [2, 19]: 80
Blackgrass plant response rating [2, 20]: 90
Blackgrass plant response rating [2, 21]: 35
Corn plant response rating (corn (Zea mays); [14]): 0
Plant response rating, Corn (corn (Zea mays); [15]): 5
Plant response rating, Corn (corn (Zea mays); [16]): 5
Plant response rating, Corn (corn (Zea mays); [17]): 0
Plant response rating, Corn (corn (Zea mays); [18]): 10
Plant response rating, Corn (corn (Zea mays); [19]): 10
Corn plant response rating (corn (Zea mays); [20]): 25
Corn plant response rating (corn (Zea mays); [21]): 5
Crabgrass, Large plant response rating [3, 14]: 10
Plant response rating, Crabgrass, Large [3, 15]: 30
Plant response rating, Crabgrass, Large [3, 16]: 35
Plant response rating, Crabgrass, Large [3, 17]: 10
Plant response rating, Crabgrass, Large [3, 18]: 15
Plant response rating, Crabgrass, Large [3, 19]: 40
Crabgrass, Large plant response rating [3, 20]: 75
Crabgrass, Large plant response rating [3, 21]: 25
Foxtail, Giant plant response rating [4, 14]: 25
Plant response rating, Foxtail, Giant [4, 15]: 70
Plant response rating, Foxtail, Giant [4, 16]: 90
Plant response rating, Foxtail, Giant [4, 17]: 70
Plant response rating, Foxtail, Giant [4, 18]: 85
Plant response rating, Foxtail, Giant [4, 19]: 85
Foxtail, Giant plant response rating [4, 20]: 98
Foxtail, Giant plant response rating [4, 21]: 55
Galium plant response rating [5, 14]: 90
Plant response rating, Galium [5, 15]: 95
Plant response rating, Galium [5, 16]: 95
Plant response rating, Galium [5, 17]: 90
Plant response rating, Galium [5, 18]: 95
Plant response rating, Galium [5, 19]: 95
Galium plant response rating [5, 20]: 95
Galium plant response rating [5, 21]: 95
Lambsquarters plant response rating [6, 14]: 95
Plant response rating, Lambsquarters [6, 15]: 98
Plant response rating, Lambsquarters [6, 16]: 100
Plant response rating, Lambsquarters [6, 17]: 90
Plant response rating, Lambsquarters [6, 18]: 90
Plant response rating, Lambsquarters [6, 19]: 90
Lambsquarters plant response rating [6, 20]: 98
Lambsquarters plant response rating [6, 21]: 95
Nutsedge, Yellow plant response rating [7, 14]: 65
Plant response rating, Nutsedge, Yellow [7, 15]: 85
Plant response rating, Nutsedge, Yellow [7, 16]: 95
Plant response rating, Nutsedge, Yellow [7, 17]: 20
Plant response rating, Nutsedge, Yellow [7, 18]: 25
Plant response rating, Nutsedge, Yellow [7, 19]: 80
Nutsedge, Yellow plant response rating [7, 20]: 80
Nutsedge, Yellow plant response rating [7, 21]: 80
Oilseed Rape plant response rating [8, 14]: 5
Plant response rating, Oilseed Rape [8, 15]: 60
Plant response rating, Oilseed Rape [8, 16]: 80
Plant response rating, Oilseed Rape [8, 17]: 0
Plant response rating, Oilseed Rape [8, 18]: 30
Plant response rating, Oilseed Rape [8, 19]: 50
Oilseed Rape plant response rating [8, 20]: 0
Oilseed Rape plant response rating [8, 21]: 50
Pigweed plant response rating [9, 14]: 85
Plant response rating, Pigweed [9, 15]: 95
Plant response rating, Pigweed [9, 16]: 95
Plant response rating, Pigweed [9, 17]: 100
Plant response rating, Pigweed [9, 18]: 100
Plant response rating, Pigweed [9, 19]: 100
Pigweed plant response rating [9, 20]: 100
Pigweed plant response rating [9, 21]: 90
Ragweed plant response rating [10, 14]: 98
Plant response rating, Ragweed [10, 15]: 98
Plant response rating, Ragweed [10, 16]: 98
Plant response rating, Ragweed [10, 17]: 90
Plant response rating, Ragweed [10, 18]: 95
Plant response rating, Ragweed [10, 19]: 95
Ragweed plant response rating [10, 20]: 100
Ragweed plant response rating [10, 21]: 90
Ryegrass, Italian plant response rating [11, 14]: 80
Plant response rating, Ryegrass, Italian [11, 15]: 85
Plant response rating, Ryegrass, Italian [11, 16]: 85
Plant response rating, Ryegrass, Italian [11, 17]: 35
Plant response rating, Ryegrass, Italian [11, 18]: 70
Plant response rating, Ryegrass, Italian [11, 19]: 90
Ryegrass, Italian plant response rating [11, 20]: 90
Ryegrass, Italian plant response rating [11, 21]: 85
Soybean plant response rating (soybean (Glycine max); [14]): 0
Plant response rating, Soybean (soybean (Glycine max); [15]): 5
Plant response rating, Soybean (soybean (Glycine max); [16]): 20
Plant response rating, Soybean (soybean (Glycine max); [17]): 0
Plant response rating, Soybean (soybean (Glycine max); [18]): 0
Plant response rating, Soybean (soybean (Glycine max); [19]): 0
Soybean plant response rating (soybean (Glycine max); [20]): 0
Soybean plant response rating (soybean (Glycine max); [21]): 15
Velvetleaf plant response rating [12, 14]: 70
Plant response rating, Velvetleaf [12, 15]: 55
Plant response rating, Velvetleaf [12, 16]: 90
Plant response rating, Velvetleaf [12, 17]: 55
Plant response rating, Velvetleaf [12, 18]: 85
Plant response rating, Velvetleaf [12, 19]: 90
Velvetleaf plant response rating [12, 20]: 95
Velvetleaf plant response rating [12, 21]: 90
Wheat plant response rating [13, 14]: 0
Plant response rating, Wheat [13, 15]: 10
Plant response rating, Wheat [13, 16]: 15
Plant response rating, Wheat [13, 17]: 0
Plant response rating, Wheat [13, 18]: 0
Plant response rating, Wheat [13, 19]: 0
Wheat plant response rating [13, 20]: 0
Wheat plant response rating [13, 21]: 5
